# From patent US8435947B2, “Endothelial nitric oxide synthase antagonists and uses thereof for inhibiting oxygen toxicity” (Medical College of Georgia Research Institute, Inc., priority 2010, dated 2013)
# Legend:
# [1] = target: T1, eNOS-β-actin association (Sus scrofa, UniProt Q6QAQ1); experiment: eNOS-β-actin co-immunoprecipitation in pulmonary artery endothelial cells; assay type: cell-based, pigs; details: peptide 20 μm, 3 h
# T1 construct: endogenous in cells; host or cells: porcine pulmonary artery endothelial cells (PAEC)
# Method: Transfection of Endothelial Cells with ABS Peptides Pulmonary artery endothelial cells were incubated with ABS peptides at 20 μm final concentration in MEM medium. […] Cells were then incubated for another 2 h before being used for co-immunoprecipitation and eNOS activity assays.
# Determination of eNOS-β-Actin Association, NO Production, and Superoxide Formation in Endothelial Cells eNOS-β-Actin association was evaluated using co-immunoprecipitation.
# This TAT tag is a novel method used to facilitate delivery of biologically active proteins or peptides into cells and tissues through the fusion of a protein transduction domain to the protein or peptide of interest (Gustafsson, A. B., et al. (2002) Circulation 106, 735-39). To confirm the efficiency of P326TAT and control peptide TAT to enter endothelial cells, FITC-labeled P326TAT and FITC-labeled control peptide TAT were used. […] Endothelial cells were incubated with P326TAT and control peptide TAT for 3 h, and then eNOS-β-actin association was evaluated by co-immunoprecipitation using anti-eNOS antibody.
# [2] = test system: pulmonary artery endothelial cells; experiment: NO production in endothelial cells (NOx, SIEVERS); assay type: cell-based, pigs; details: peptide 20 μm 3 h, ionomycin 2 μM
# Method: After wild-type and eNOS mutant transfection, ionomycin (2 μm) was added to the cells. After 30 min of incubation, culture medium was collected and ethanol-precipitated to remove proteins. 50 μl of the reaction mix were loaded to the SIEVERS machine for NOx measurement according to standard manufacturer's instructions (Church, J. E., and Fulton, D. (2006) J. Biol. Chem. 281, 1477-88). In some experiments, N^G-nitro-1-arginine methyl ester (L-NAME), a specific eNOS inhibitor, was used to inhibit NO production. […] For superoxide assay, after incubation with ABS peptides, the spin trap CMH was added to the cells. Superoxide from cells was trapped for 1 h, and then cells were scraped and subjected to EPR spectroscopy as previously described (Sud, N., et al. (2008) Am. J. Physiol. Cell Physiol. 294, C1407-18). Protein contents in the cell lysates were determined by Lowry's method.
# To measure NO production, endothelial cells were incubated with ABS peptides for 3 h. Then ionomycin (2 μM) was added to the cells. After an additional 30 min, culture medium was collected and ethanol-precipitated to remove proteins. 50 μl of the reaction mix were loaded to the SIEVERS machine for NOx measurement as described above. For superoxide assay, after incubation with ABS peptides, the spin trap CMH was added to the cells. […]
# [3] = test system: pulmonary artery endothelial cells; experiment: superoxide formation in endothelial cells (CMH spin trap, EPR); assay type: cell-based, pigs; details: endothelial cells, peptide 20 μm, versus control peptide TAT
# Method: To measure NO production, endothelial cells were incubated with ABS peptides for 3 h. Then ionomycin (2 μM) was added to the cells. After an additional 30 min, culture medium was collected and ethanol-precipitated to remove proteins. 50 μl of the reaction mix were loaded to the SIEVERS machine for NOx measurement as described above. For superoxide assay, after incubation with ABS peptides, the spin trap CMH was added to the cells. Superoxide from cells was trapped for 1 h, and then cells were scraped and subjected to EPR spectroscopy.
# [4] = test system: eNOS-Hsp90 interaction; experiment: eNOS-Hsp90 co-immunoprecipitation in endothelial cells; assay type: cell-based, pigs; details: versus control peptide TAT-transfected cells
# Method: To rule out the possibility that the effect of P326TAT on eNOS activity in endothelial cells is caused by its effect on eNOS-Hsp90 interaction, eNOS-Hsp90 association was measured by co-immunoprecipitation using eNOS antibody.
# [5] = test system: pulmonary artery endothelial cells; experiment: endothelial monolayer wound repair; assay type: cell-based, pigs; details: P326TAT 20 μm
# Method: Pulmonary artery endothelial cells were incubated with ABS peptides for 3 h. Then endothelial monolayer wound repair in the absence and presence of PEG-SOD (100 units/ml) and NOC-18 (10 μm) was measured as previously reported (Su, Y., et al. (2006) FASEB J. 20, 1443-51). Endothelial monolayer wound repair distance was expressed as the width of the wound before treatment subtracted by that after treatment.
# [6] = target: T1, eNOS-β-actin association; experiment: eNOS-β-actin co-immunoprecipitation in PAEC under normoxia or hyperoxia; assay type: cell-based, pigs
# Method: (§1) Third- to sixth-passage cells in monolayer culture were maintained in RPMI 1640 medium containing 4% fetal bovine serum and antibiotics (10 units/ml penicillin, 100 μg/ml streptomycin, 20 μg/ml gentamicin, and 2 μg/ml Fungizone) and were used 2 or 3 days after confluence.
# (§2) To reduce β-actin availability to eNOS, the β-actin mRNA was silenced using its siRNA as previously reported by us (Kondrikov, D., et al. (2006) Am. J. Physiol. Lung Cell Mol. Physiol. 290, L41-L50).
# [7] = test system: eNOS; experiment: eNOS catalytic activity (L-citrulline formation) in hyperoxic PAEC; assay type: cell-based, pigs; details: 95% oxygen 24 h
# Method: as §1
# (§3) The homogenates were centrifuged at 100,000 g for 60 min at 4° C., and the total membrane pellet was resuspended in buffer B (bufferAplus 2.5 mM CaCl2). The resulting suspension was used for determination of eNOS activity by monitoring the formation of L-[^3H]citrulline from L-[^3H]arginine (Su, Y., et al. (2003) Am. J. Physiol. Cell Physiol. 284, C1542-C1549). To determine NO production, thapsigargin (100 nM) was added to the medium of endothelial cells following normoxic or hyperoxic exposure. After 60 min of incubation, culture medium was collected and ethanol-precipitated to remove proteins. 50 μl of the reaction mix were loaded to the SIEVERS machine for NOx (NO2 and NO3) measurement according to standard manufacturer's instruction as previously described (Church, J E., et al. (2006) J. Biol. Chem. 281, 1477-1488). Protein contents in the cell lysates were determined by Lowry's method.
# as §2
# [8] = test system: PAEC; experiment: NO production in hyperoxic PAEC; assay type: cell-based, pigs; details: 95% oxygen 24 h
# Method: as §1, §3, §2
# [9] = test system: PAEC; experiment: peroxynitrite formation in hyperoxic PAEC (APF fluorescence); assay type: cell-based, pigs; details: 95% oxygen 24 h
# Method: as §1, §2
# [10] = test system: PAEC; details: peptide 20 μM, 95% oxygen 24 h
# Method: as §1
sequence,measurement,setting,value
RKKRRQRRRALGLRWYAL [P326TAT],amount of β-actin co-immunoprecipitated with eNOS,[1],significantly decreased the amount of β-actin co-immunoprecipitated with eNOS
same,NO production,[2],significantly decreased NO production
same,superoxide formation,[3],much higher in P326TAT-transfected endothelial cells than control peptide TAT-transfected endothelial cells
same,eNOS-Hsp90 interaction (Hsp90 co-precipitated with eNOS),[4],did not affect eNOS-Hsp90 interaction
same,endothelial monolayer wound repair,[5],exhibited lower capacity of wound repair
same,hyperoxia-induced increase in β-actin co-immunoprecipitated with eNOS,[6]; 95% oxygen 24 h,prevented hyperoxia-induced increase in eNOS-β-actin co-immunoprecipitation
same,amount of β-actin co-immunoprecipitated with eNOS,[6]; peptide 20 μM,significantly decreased the amount of β-actin co-immunoprecipitated with eNOS
same,hyperoxia-induced increase in eNOS activity,[7],hyperoxic exposure did not induce an increase in eNOS activity
same,hyperoxia-induced increase in NO formation,[8],prevented hyperoxiainduced increases in NO and peroxynitrite formation
same,hyperoxia-induced increase in peroxynitrite formation,[9],prevented hyperoxiainduced increases in NO and peroxynitrite formation
same,"tyrosine nitration of proteins at 250, 100, 75, and 60 kDa, hyperoxia versus normoxia",[10],comparable between normoxia and hyperoxia
